Key:
[1] = xn = mol fraction of the nth substance listed; details: 100 kPa, Liquid; for speed of sound: Frequency=3 MHz, Single path-length method; for mass density: Vibrating tube method
[2] = refractive index (Na D-line) (dimensionless); xn = mol fraction of the nth substance listed; details: 100 kPa, Liquid, Standard Abbe refractometry

COCCO [2-methoxyethan-1-ol] + CCOC(=O)OCC
Details	mass density, [1] [kg/m3]	refractive index, [2]	speed of sound, [1] [m/s]
298.15 K, x2 = 0	960.32	1.4001	1342.1
298.15 K, x2 = 0.0645	960.64	1.3989	1322.5
298.15 K, x2 = 0.1406	961.01	1.3976	1302.2
298.15 K, x2 = 0.2248	961.49	1.3963	1282.2
298.15 K, x2 = 0.3025	961.99	1.3951	1265.8
298.15 K, x2 = 0.3928	962.65	1.3936	1248.7
298.15 K, x2 = 0.4994	963.51	1.3916	1231.2
298.15 K, x2 = 0.6007	964.44	1.3897	1216.9
298.15 K, x2 = 0.7212	965.66	1.3874	1202.5
298.15 K, x2 = 0.8496	967.12	1.3851	1189.7
303.15 K, x2 = 0	955.71	1.3981	1324.7
303.15 K, x2 = 0.0645	955.91	1.3969	1304.6
303.15 K, x2 = 0.1406	956.16	1.3957	1283.8
303.15 K, x2 = 0.2248	956.52	1.3943	1263.4
303.15 K, x2 = 0.3025	956.91	1.3931	1246.7
303.15 K, x2 = 0.3928	957.45	1.3915	1229.4
303.15 K, x2 = 0.4994	958.2	1.3895	1211.7
303.15 K, x2 = 0.6007	959.03	1.3876	1197.2
303.15 K, x2 = 0.7212	960.16	1.3853	1182.5
303.15 K, x2 = 0.8496	961.54	1.3829	1169.5
308.15 K, x2 = 0	951.08	1.3961	1307.4
308.15 K, x2 = 0.0645	951.16	1.395	1286.7
308.15 K, x2 = 0.1406	951.29	1.3938	1265.4
308.15 K, x2 = 0.2248	951.51	1.3924	1244.7
308.15 K, x2 = 0.3025	951.79	1.3911	1227.7
308.15 K, x2 = 0.3928	952.22	1.3894	1210.2
308.15 K, x2 = 0.4994	952.85	1.3875	1192.4
308.15 K, x2 = 0.6007	953.59	1.3855	1177.7
308.15 K, x2 = 0.7212	954.63	1.3832	1162.7
308.15 K, x2 = 0.8496	955.94	1.3807	1149.3
313.15 K, x2 = 0	946.42	1.3943	1290
313.15 K, x2 = 0.0645	946.39	1.3931	1268.8
313.15 K, x2 = 0.1406	946.49	1.3918	1247
313.15 K, x2 = 0.2248	946.58	1.3904	1226
313.15 K, x2 = 0.3025	946.66	1.389	1208.8
313.15 K, x2 = 0.3928	946.97	1.3874	1191.2
313.15 K, x2 = 0.4994	947.49	1.3854	1173.2
313.15 K, x2 = 0.6007	948.13	1.3834	1158.3
313.15 K, x2 = 0.7212	949.08	1.3811	1143
313.15 K, x2 = 0.8496	950.31	1.3786	1129.4
318.15 K, x2 = 0	941.72	1.3922	1272.7
318.15 K, x2 = 0.0645	941.57	1.3913	1251
318.15 K, x2 = 0.1406	941.44	1.39	1228.8
318.15 K, x2 = 0.2248	941.41	1.3885	1207.4
318.15 K, x2 = 0.3025	941.48	1.3871	1190.1
318.15 K, x2 = 0.3928	941.67	1.3853	1172.3
318.15 K, x2 = 0.4994	942.07	1.3833	1154.1
318.15 K, x2 = 0.6007	942.61	1.3814	1139.1
318.15 K, x2 = 0.7212	943.46	1.379	1123.5
318.15 K, x2 = 0.8496	944.62	1.3764	1109.7
323.15 K, x2 = 0	936.89	1.3902	1255.4
323.15 K, x2 = 0.0645	936.71	1.3894	1233.2
323.15 K, x2 = 0.1406	936.46	1.3881	1210.6
323.15 K, x2 = 0.2248	936.29	1.3865	1188.9
323.15 K, x2 = 0.3025	936.25	1.385	1171.4
323.15 K, x2 = 0.3928	936.34	1.3832	1153.5
323.15 K, x2 = 0.4994	936.62	1.3812	1135.1
323.15 K, x2 = 0.6007	937.08	1.3792	1119.9
323.15 K, x2 = 0.7212	937.86	1.3768	1104.2
323.15 K, x2 = 0.8496	938.96	1.3743	1090

From the NIST ThermoML archive (doi:10.1016/j.jct.2016.11.002)
